Patent EP0346068A2, “D-Cys6 vasopressin antagonists” (SMITHKLINE BECKMAN CORPORATION, priority 1988, dated 1989)
Positions of bridges follow the written chain, without caps; N, C: chain ends. No end group written: not given here.

Test system: Adult female mongrel dogs
Assay: Partial agonist screen in indomethacin-treated dogs under water diuresis (urine volume and osmolality)
Type: in vivo
Description: The compounds are tested for partial agonist activity by the following procedures:
Adult female mongrel dogs are fasted for 18 hours prior to testing. The studies are conducted under steady state water diuresis initiated by a 5% body weight water load and a 3% dextrose infusion. At 0 hour, indomethacin, a cyclooxygenase inhibitor, is administered (2 mg/kg i.v. bolus and 3 mg/kg/hr i.v. infusion). Twenty minutes later, the test compound is administered i.v. Urine volume and osmolality are measured every 10 minutes for 4 hours.
The indomethacin dog model may predict the agonist activity of a compound in man.

Substance: ADH: the natural anti-diuretic hormone (ADH), vasopressin (CYFQNCPRG-NH2; disulfide 1-6; ends not checked; UniProt P01185 20-28, looked up)
- antidiuretic activity (urine osmolality, volume) after treatment with indomethacin: potentiates the antidiuretic activity
